Results reported in patent publication US8470381B2, “Spinosyn antifouling compositions, methods of use thereof and articles protected from attachment of biofouling organisms” (Entarco S.A., priority 2008, dated 2013).
Several values for one entry are separate records, joined by “and”; a condition that tells them apart may be missing. Equal values may be shown once. Entries after “also recorded” stand apart in the source; their conditions may differ.

Assays:
Vibrio sp (V) = assay: Agar diffusion antimicrobial assay against marine bacteria associated with Balanus amphitrite; assay type: cell-based; conditions: 24 hours
Experimental: (§1) The effect of spinosad as a bacteriostatic compound was tested against four bacterial species using standard agar diffusion techniques, as described by Avelin et al., J. Chem. Ecol., 19(10), 2155-67 (1993). The bacteria used in the test were as follows: Aeromonas sp (Ae); Alcaligenes sp (Al); Flavobacterium sp (F); and Vibrio sp (V);
(§2) The agar diffusion technique follows the original method by Acar (1980). In a sterilized petri dish 1 ml of 12 hour old nutrient broth culture, comprising of 3.7% of marine broth in distilled water, of each marine bacterial species was transferred along with 20 ml of antibiotic agar medium.
(§3) Sterilized Whatman No. 1 paper discs (6.25 mm diameter) were loaded with the test solution (2.4% w/w Tracer in distilled water) at concentrations calculated in pure spinosad ranging from 10^−1 mg/10 μl to 10^−4 mg/10 μl. Control discs were loaded with only the vehicle. After 24 hours of exposure to the test solution, the zone of inhibition, i.e. the area around the disc devoid of marine bacterial growth was measured by determining the distance from the edge of the disc to the edge of the area showing no bacterial growth (mm).

Aeromonas sp (Ae) = assay: as above; assay type: cell-based; conditions: isolate Ae1, 24 hours
Experimental: as §1, §2, §3

Alcaligenes sp (Al) = assay: as above; assay type: cell-based; conditions: 24 hours
Experimental: as §1, §2, §3

Flavobacterium sp (F) = assay: as above; assay type: cell-based; conditions: 24 hours
Experimental: as §1, §2, §3

[1] = tested on: barnacle cyprids (Balanus amphitrite Darwin); assay: Barnacle cyprid settlement assay and EC50 determination; assay type: in vivo; conditions: for % of set: dishes a, b, c and Total (mean), control mean 78
Text: The barnacle, Balanus amphitrite Darwin, is the most ubiquitous hard fouling organism found in all marine ecosystems, particularly in ports visited by commercial shipping. The methods used in this evaluation have been described in detail in a number of publications (Rittschof D, Clare A S, Gerhart D J, Avelin Mary, Bonavetura J (1991) Barnacle in vitro assays for biologically active substances: toxicity and settlement assays using mass cultured Balanus amphitrite amphitrite Darwin. Biofouling 6:115-122.
The barnacle adults are cultured in the laboratory and allowed to spawn naturally. The larvae are harvested and grown in artificial culture systems until they reach the cyprid stage at which time the larvae become competent to attach to surfaces. Once attached, the cyprids transform into a pinhead barnacle, thus becoming permanently attached to the surface.
The sample solution tested was a 23.2% w/w solution of Tracer in distilled water (equivalent to 10% w/w in pure spinosad or 100 mg spinosad/ml). The sample was stirred prior to making serial dilutions.
The data are summarized in the Tables 2 and 3 below along with the calculations for the EC50. […] Thereafter, there was dose dependent attachment from 10^−5 and at lower concentrations, only reaching control values at […]. The EC50 calculation via probit analysis show an EC50 of 7×10^−8 mg/ml.
Additional notes to the data below: 1. Set means the total number of cyprid larvae that have settled and attached on the surface of the petri dish. 2. Non-Set means the total number of cyprids that remain swimming in the seawater and not settled on the surface. 3. Data are expressed as the percentage of cyprids that settled on the surface. 4. Data are summarized and the mean, standard deviation (SD) and the standard error of the mean (SE) are calculated for samples. 5. Tests were conducted in replicates of three dishes per study group; each dish containing anywhere from 75 to 100 cyprids.

Dunaliella tertiolecta = assay: Inhibition of the growth of the fouling microalgae in flask culture; assay type: cell-based; conditions: 10-^2 to 10^−9 mg spinosad/ml; cells counted each day
Experimental: A water emulsion containing 23.2% w/w Tracer®=10% spinosad was used at the start of this assay. Dunaliella tertiolecta was maintained in stock cultures in 20 ml test tubes as seed cultures and maintained on seven day transfer cycle. The marine micro-algae were inoculated into 250 ml conical flasks containing 100 ml of filtered, sterilized seawater in F/2-Guillard-1975 growth medium. The initial 10% spinosad emulsion (coded Entarco 8205 10%), was further dissolved in distilled water and added at various concentrations to each algal culture for final concentrations ranging from 10-^2 mg spinosad/ml to 10^−9 mg spinosad/ml. Controls consisted of algal culture without the test solution. Each test group was comprised of 3 flasks.
The typical culture goes through four phases. Lag phase is characterized by little or no multiplication of the cells. Log phase or exponential phase is when there is a rapid increase in the rate of cell division. During the next phase, called stationary phase, the number of living cells remain constant and there is no further growth. […] The growth of the algal cells in each flask was counted each day by haemocytometer. The entire growth and decline of the culture in the presence or absence of spinosad was determined (Targett, 1988 Allelochemistry in marine organisms: Chemical fouling and antifouling strategies).

spinosad showed a zone of inhibition (Vibrio sp (V); isolate V1, 10^−1 mg/10 μl (10000 ppm spinosad)) of 8 mm, a zone of inhibition (Vibrio sp (V); isolate V1, 10^−2 mg/10 μl (1000 ppm spinosad)) of 5.5 mm and a zone of inhibition (Vibrio sp (V); isolate V1, 10^−3 mg/10 μl (100 ppm spinosad)) of 5.5 mm. For the same substance, the zone of inhibition (Vibrio sp (V); isolate V1, 10^−4 mg/10 μl (10 ppm spinosad)) was 5.5 mm, the zone of inhibition (Vibrio sp (V); isolate V2, 10^−1 mg/10 μl (10000 ppm spinosad)) was 8 mm and the zone of inhibition (Vibrio sp (V); isolate V2, 10^−2 mg/10 μl (1000 ppm spinosad)) was 7 mm. The zone of inhibition (Vibrio sp (V); isolate V2, 10^−3 mg/10 μl (100 ppm spinosad)) was 6 mm, the zone of inhibition (Vibrio sp (V); isolate V2, 10^−4 mg/10 μl (10 ppm spinosad)) was 6 mm and the zone of inhibition (Aeromonas sp (Ae); 10^−1 mg/10 μl (10000 ppm spinosad)) was 7.5 mm. It also gave a zone of inhibition (Aeromonas sp (Ae); 10^−2 mg/10 μl (1000 ppm spinosad)) of 7 mm, a zone of inhibition (Aeromonas sp (Ae); 10^−3 mg/10 μl (100 ppm spinosad)) of 7 mm and a zone of inhibition (Aeromonas sp (Ae); 10^−4 mg/10 μl (10 ppm spinosad)) of 5.5 mm. For the same substance, the zone of inhibition (Alcaligenes sp (Al); isolate Al1, 10^−1 mg/10 μl (10000 ppm spinosad)) was 8 mm, the zone of inhibition (Alcaligenes sp (Al); isolate Al1, 10^−2 mg/10 μl (1000 ppm spinosad)) was 6 mm and the zone of inhibition (Alcaligenes sp (Al); isolate Al1, 10^−3 mg/10 μl (100 ppm spinosad)) was 6 mm. It also gave a zone of inhibition (Alcaligenes sp (Al); isolate Al1, 10^−4 mg/10 μl (10 ppm spinosad)) of 6 mm, a zone of inhibition (Alcaligenes sp (Al); isolate Al2, 10^−1 mg/10 μl (10000 ppm spinosad)) of 7 mm and a zone of inhibition (Alcaligenes sp (Al); isolate Al2, 10^−2 mg/10 μl (1000 ppm spinosad)) of 6.5 mm. It also gave a zone of inhibition (Alcaligenes sp (Al); isolate Al2, 10^−3 mg/10 μl (100 ppm spinosad)) of 5.5 mm, a zone of inhibition (Alcaligenes sp (Al); isolate Al2, 10^−4 mg/10 μl (10 ppm spinosad)) of 5.5 mm and a zone of inhibition (Flavobacterium sp (F); isolate F1, 10^−1 mg/10 μl (10000 ppm spinosad)) of 7.5 mm. For the same substance, the zone of inhibition (Flavobacterium sp (F); isolate F1, 10^−2 mg/10 μl (1000 ppm spinosad)) was 6 mm, the zone of inhibition (Flavobacterium sp (F); isolate F1, 10^−3 mg/10 μl (100 ppm spinosad)) was 6 mm and the zone of inhibition (Flavobacterium sp (F); isolate F1, 10^−4 mg/10 μl (10 ppm spinosad)) was 6 mm. The zone of inhibition (Flavobacterium sp (F); isolate F2, 10^−1 mg/10 μl (10000 ppm spinosad)) was 7.5 mm, the zone of inhibition (Flavobacterium sp (F); isolate F2, 10^−2 mg/10 μl (1000 ppm spinosad)) was 6 mm and the zone of inhibition (Flavobacterium sp (F); isolate F2, 10^−3 mg/10 μl (100 ppm spinosad)) was 6 mm. The zone of inhibition (Flavobacterium sp (F); isolate F2, 10^−4 mg/10 μl (10 ppm spinosad)) was 6 mm, the “% of set” value ([1]; 0.1 mg spinosad/ml) was 0% and the “% of set” value ([1]; 10−^2 mg spinosad/ml) was 0%. For the same substance, the “% of set” value ([1]; 10−^3 mg spinosad/ml) was 0%, the “% of set” value ([1]; 10−^4 mg spinosad/ml) was 0% and the “% of set” value ([1]; 10−^5 mg spinosad/ml) was 7% and 9% and 12%. For the same substance, the “% of set” value ([1]; 10−^7 mg spinosad/ml) was 31% and 34% and 42%, the “% of set” value ([1]; 10−^8 mg spinosad/ml) was 52% and 57% and 50% and the “% of set” value ([1]; 10−^9 mg spinosad/ml) was 63% and 61% and 70%. The “% of set” value ([1]; 10−^10 mg spinosad/ml) was 77% and 78% and 71%, the “% of set” value ([1]; 10−^11 mg spinosad/ml) was 77% and 79% and 72% and the mortality of cyprids ([1]; all concentrations tested) was “absence of any mortality; also recorded: no mortality seen at all concentrations tested”. The cyprid settlement ([1]; from 10^−1 to 10^−4 mg/ml) was “no cyprid settlement”, the mortality of cyprids ([1]; highest concentration used (0.1 mg spinosad/ml)) was “no mortality was observed” and the “EC50 on the settlement of barnacle cyprids” value ([1]; probit analysis) was 0.07 ng/mL. For the same substance, the “growth of Dunaliella tertiolecta (FIG. 1)” value (Dunaliella tertiolecta) was “significant microalgae inhibitory properties which are dose dependent”.
